The text below walks through data of paper PMC6019134, “1,2,6-Thiadiazinones as Novel Narrow Spectrum Calcium/Calmodulin-Dependent Protein Kinase Kinase 2 (CaMKK2) Inhibitors” (Molecules : A Journal of Synthetic Chemistry and Natural …, 2018).

Experiment in all cases: DSF thermal shift, kinase panel
Assay type in all cases: binding
Holding throughout (conditions): 10 μM compound

In experiment [1] the target is T1, MAP2K7A (Homo sapiens, UniProt O14733).
T1 construct: purchased in-house (home-made panel, SGC-style construct names)
T1 sequence (O14733 1-419): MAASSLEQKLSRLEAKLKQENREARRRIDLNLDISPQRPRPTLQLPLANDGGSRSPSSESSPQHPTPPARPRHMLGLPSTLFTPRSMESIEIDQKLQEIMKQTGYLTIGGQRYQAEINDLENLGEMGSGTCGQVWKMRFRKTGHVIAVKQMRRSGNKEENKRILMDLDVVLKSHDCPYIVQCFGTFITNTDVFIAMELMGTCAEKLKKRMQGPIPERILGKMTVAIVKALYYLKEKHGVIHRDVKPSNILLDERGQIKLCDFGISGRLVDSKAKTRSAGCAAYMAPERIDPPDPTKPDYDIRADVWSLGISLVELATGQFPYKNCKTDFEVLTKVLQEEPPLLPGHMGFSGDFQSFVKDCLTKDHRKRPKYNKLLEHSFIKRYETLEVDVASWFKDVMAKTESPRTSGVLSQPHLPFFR
In a few lines:
(§1)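 DSF: 1 µM tag-cleaved kinase, 10 µM cpd, 100 mM K2HPO4 pH 7.5/150 mM NaCl/10% glycerol + dye; 5 min 25 °C, ramp to 95 °C @ 0.05 °C/s; dTm vs 0.2% DMSO, Boltzmann fit.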

In experiment [2] the target is T2, RPS6KA1A (Homo sapiens, UniProt Q15418).
T2 construct: purchased in-house (home-made panel, SGC-style construct names)
In a few lines:
as §1

Experiment [3] addresses T3, STK17AA (Homo sapiens, UniProt Q9UEE5).
T3 construct: TEV-cleavable (cleaved yes); made in house; host or cells: E. coli
T3 sequence (Q9UEE5 1-414): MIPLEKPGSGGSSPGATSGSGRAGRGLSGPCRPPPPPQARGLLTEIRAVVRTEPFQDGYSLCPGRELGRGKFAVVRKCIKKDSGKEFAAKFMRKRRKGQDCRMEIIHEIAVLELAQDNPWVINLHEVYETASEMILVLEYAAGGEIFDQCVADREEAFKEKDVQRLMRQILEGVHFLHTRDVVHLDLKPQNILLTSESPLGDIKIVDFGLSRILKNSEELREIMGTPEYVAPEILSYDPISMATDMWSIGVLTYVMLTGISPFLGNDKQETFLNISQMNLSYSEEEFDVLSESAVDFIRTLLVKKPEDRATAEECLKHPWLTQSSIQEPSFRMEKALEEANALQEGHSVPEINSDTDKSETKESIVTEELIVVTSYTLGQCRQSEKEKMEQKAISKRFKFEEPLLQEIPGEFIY
In a few lines: as §1

T2 sequence (Q15418 whole entry): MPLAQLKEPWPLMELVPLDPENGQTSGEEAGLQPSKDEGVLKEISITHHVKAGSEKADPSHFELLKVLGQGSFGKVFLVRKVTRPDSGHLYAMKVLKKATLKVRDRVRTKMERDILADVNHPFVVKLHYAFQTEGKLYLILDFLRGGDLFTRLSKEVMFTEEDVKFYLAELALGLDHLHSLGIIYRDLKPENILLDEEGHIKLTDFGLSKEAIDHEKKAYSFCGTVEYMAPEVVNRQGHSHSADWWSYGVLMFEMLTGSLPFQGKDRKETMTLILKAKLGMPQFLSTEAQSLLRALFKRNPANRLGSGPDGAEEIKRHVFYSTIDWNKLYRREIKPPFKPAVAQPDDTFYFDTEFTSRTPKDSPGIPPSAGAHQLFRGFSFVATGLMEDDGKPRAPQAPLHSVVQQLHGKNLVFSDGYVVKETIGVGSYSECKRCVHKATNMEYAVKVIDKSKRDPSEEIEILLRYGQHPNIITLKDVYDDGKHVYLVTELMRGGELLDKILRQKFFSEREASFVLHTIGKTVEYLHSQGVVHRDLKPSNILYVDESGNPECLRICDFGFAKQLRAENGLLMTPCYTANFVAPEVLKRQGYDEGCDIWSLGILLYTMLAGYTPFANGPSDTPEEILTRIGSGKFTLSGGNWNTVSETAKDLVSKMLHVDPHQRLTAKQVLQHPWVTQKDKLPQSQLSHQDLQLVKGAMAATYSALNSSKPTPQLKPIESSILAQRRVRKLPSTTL

The term ΔTm denotes the shift of the melting midpoint relative to a reference. For the molecule `Cc1ccc(Nc2nsnc(Nc3cccc(C(N)=O)c3)c2=O)cc1O` [Compound 1, 3-({5-[(3-Hydroxy-4-methylphenyl)amino]-4-oxo-4H-1,2,6-thiadiazin-3-yl}amino)benzamide], the figures for the ΔTm at 10 µM in experiment [1], in experiment [2] and in experiment [3] were 1.1 °C, -0.6 °C and -0.5 °C, respectively.

Consider `Cc1ccc(Nc2nsnc(Nc3ccc(C(N)=O)cc3)c2=O)cc1O` [Compound 2, 4-({5-[(3-Hydroxy-4-methylphenyl)amino]-4-oxo-4H-1,2,6-thiadiazin-3-yl}amino)benzamide], for which the ΔTm at 10 µM in experiment [1] stood at 3.1 °C; in experiment [2] it was 1.3 °C; in experiment [3] it was 2.2 °C.

`Cc1ccc(Nc2nsnc(Nc3ccc4c(c3)CS(=O)(=O)C4)c2=O)cc1O` [Compound 3, 3-[(2,2-Dioxido-1,3-dihydrobenzo[c]thiophen-5-yl)amino]-5-[(3-hydroxy-4-methylphenyl)amino]-4H-1,2,6-thiadiazin-4-one]: the ΔTm at 10 µM in experiment [1] is 3.2 °C; in experiment [2], -0.4 °C; in experiment [3] it was 1.7 °C.

For `CNC(=O)c1ccccc1Nc1nsnc(Nc2cccc(CS(C)(=O)=O)c2)c1=O` [Compound 4, N-Methyl-2-([5-({3-[(methylsulfonyl)methyl]phenyl}amino)-4-oxo-4H-1,2,6-thiadiazin-3-yl]-amino}-benzamide], the figures for the shift in melting temperature (ΔTm) at 10 µM in experiment [1], in experiment [2] and in experiment [3] were 0.6 °C, -0.4 °C and -0.8 °C, respectively.

With `CNC(=O)c1ccccc1Nc1nsnc(Nc2ccc(N3CCOCC3)cc2)c1=O` [Compound 5, N-Methyl-2-({5-[(4-morpholinophenyl)amino]-4-oxo-4H-1,2,6-thiadiazin-3-yl}amino)benzamide], the ΔTm at 10 µM in experiment [1] was 1 °C; in experiment [2] it was -0.4 °C; in experiment [3], -0.8 °C.
